Data set [1] can be described thus: Lozenge of oxaloacetic acid with a test substance, stability in open environment for one week. As to conditions: for decomposition of oxaloacetic acid compounded with the ingredient and compressed into a lozenge: examination over a period of one week; for effective way of increasing the pH without degrading the oxaloacetic acid: pH modifier combined with oxaloacetic acid. The source says:
The Applicant set out on a path of discovery to ascertain what compounds would be stable with oxaloacetic acid—not just for pH modification, but for other physical properties necessary for various delivery systems, such as color stabilization, lozenge dissolve time, lozenge friability, taste, lozenge release from the tablet mold, flow agents, and bulking agents in addition to pH modification. Preparations of oxaloacetic acid was compounded with various ingredients and compressed into a lozenge for examination over a period of one week.
A lozenge is created consisting of 100 mg oxaloacetic acid, and 100 mg of a test substance. The powders are compressed in a tablet mold and released. Each test tablet is placed on a cardboard for one week to ascertain stability in an open environment, such as an open bottle.
The procedure in Example 1 was followed, but with the following individual modifiers to oxaloacetic acid: • Calcium Carbonate (pH Modifier) • Erythitol (Taste Modifier) • Dicalcium Phosphate dihydrate (pH Modifier and lozenge binder) • Vegetable Steric Acid (Release Agent) • Ascorbyl Palmitate (Release Agent)

For data set [2] the following is noted: oxaloacetic acid with anhydrous NaOH or KOH or both.
For data set [3] the following is noted: Yoshikawa 1968; Cash 2013; room temperature for the sodium salt; cited from earlier work.
Data set [4] is described as follows: pH of solution created by oxaloacetic acid delivered to the mouth. As to conditions: delivered to the mouth in powder or lozenge form. The data set is classed as physicochemical. An excerpt:
Other methods of delivery are transdermal patches, sublingual lozenges, buccal lozenges, inhalation preparations and anal or vaginal suppositories. These methods of delivery can provide higher percentages of the given oxaloacetate to the blood stream for distribution to various organs, and provide the oxaloacetate quicker than the oral route. These delivery methods face a problem with the acidity of oxaloacetic acid. As an example of this, oxaloacetic acid delivered to the mouth in powder or lozenge form creates a solution at a pH of approximately 2.3. This low pH degrades the enamel on the teeth, and provides a large challenge to continued long-term use of oxaloacetate in sublingual lozenges and buccal lozenges. The effect on the teeth is apparent after just 100 mg oxaloacetate is taken either sublingually or via buccal lozenge. The low pH also causes a painful burning sensation in the lungs if inhaled. Vaginal and anal suppositories are also uncomfortable at low pH. Transdermal patches at low pH are also uncomfortable.

“Also recorded” adds a separate entry of the source.

For the molecule `[K+].[OH-]` [KOH, potassium hydroxide], in data set [1], the “decomposition of oxaloacetic acid compounded with the ingredient and compressed into a lozenge” value (“decomposition” below) is recorded as “rapid decomposition”; the “effective way of increasing the pH without degrading the oxaloacetic acid” value is reported as “not effective”. The “degradation of sublingual tablets after manufacture” value in data set [2] was “degraded within a few days”.
For the molecule `OC[C@@H](O)[C@@H](O)CO` [Erythitol], the “decomposition” value in data set [1] is given as “effective”.
Same read-out and setting: then `OC[C@@H](O)[C@H](O)[C@@H](O)CO` [Xylitol], with “rapid decomposition; also recorded: did not work well”; and `CCCCCCCCCCCCCCCC(=O)OC[C@H](O)[C@H]1OC(=O)C(O)=C1O` [Ascorbyl Palmitate], with “effective”; and Magnesium Stearate, with “rapid decomposition”.
With `O.O.O=P([O-])([O-])O.[Ca+2]` [Dicalcium Phosphate dihydrate], the “decomposition” value in data set [1] was “effective”.
Consider Silicon Dioxide, for which the “decomposition” value in data set [1] is recorded as “rapid decomposition”.
`O=C([O-])CC(=O)C(=O)O.[Na+]` [sodium oxaloacetate]: the stability result in data set [3] is “not stable, and quickly degrades at room temperature”.
Turning to `O=C([O-])O.[K+]` [Potassium Bicarbonate], the “decomposition” value in data set [1] is recorded as “rapid decomposition”.
Same read-out and setting: then `[Na+].[OH-]` [NaOH, sodium hydroxide], with “rapid decomposition”.
With `O=P([O-])([O-])O.[Ca+2]` [Calcium Phosphate Dibasic], the “decomposition” value in data set [1] was “rapid decomposition”.
With `OC[C@H]1O[C@@](CO)(O[C@H]2O[C@H](CO)[C@@H](O)[C@H](O)[C@H]2O)[C@@H](O)[C@@H]1O` [Table sugar], in data set [1], the “decomposition” value was “rapid decomposition”.
`CCCCCCCCCCCCCCCCCC(=O)O` [Vegetable Steric Acid]: the “decomposition” value in data set [1] is on record as “effective”.
Same read-out and setting: then `O=C(O)CC(O)(CC(=O)O)C(=O)O` [Citric Acid], with “rapid decomposition”.
The same measure, in the same setting: the entry for `[Mg+2].[OH-].[OH-]` [Magnesium Hydroxide] is “rapid decomposition”.
For `O=C([O-])O.[Na+]` [Sodium bicarbonate], in data set [1], the “decomposition” value is “rapid decomposition”; the “effective way of increasing the pH without degrading the oxaloacetic acid” value is “not effective”.
The like results for `O=C([O-])[O-].[Ca+2]` [Calcium Carbonate] were, in that order, “effective” and “effective”.
Turning to `O=C([O-])CC(O)(CC(=O)[O-])C(=O)[O-].[K+].[K+].[K+]` [Potassium Citrate], the “decomposition” value in data set [1] is recorded as “rapid decomposition”.
`[Cl-].[Na+]` [NaCl]: the “decomposition” value in data set [1] is recorded as “rapid decomposition”.
In the case of `O=C(O)CC(=O)C(=O)O` [oxaloacetic acid], the pH of solution result in data set [4] is reported as “approximately 2.3”. In addition, the stability entry in data set [3] is listed as “not stable at all”.
As to `[O]=[Mg]` [Magnesium Oxide], the “decomposition” value in data set [1] is “rapid decomposition”.
The same measure, in the same setting: then `[O]=[Ti]=[O]` [TiO2], with “rapid decomposition”.
